In patent publication US20260125351A1, “COMPOUND FOR INDUCING EXPRESSION OF ANTI-AGING GENE KLOTHO AND USE THEREOF” (KLOTHO SCIENCES, priority 2019, published 2026):

What was measured:
[1] = tested on: promoter of the human klotho gene; test: Luciferase expression experiment, klotho promoter reporter (1.7 kbp or 240 bp) in RPTEC cells; format: cell-based; conditions: 5 μM, 24 hours, reporter with klotho promoter to 1.7 kbp or 240 bp, among Comparative Examples 1 to 4 (FIG. 1)
Method: (§1) In order to evaluate whether the klotho gene was expressed by the evaluation of luciferase activity, human renal proximal tubule epithelial cells (RPTECs) (ATCC CRL-4031), which are epithelial cells of the proximal tubule of the human kidneys, were purchased from Lonza, USA and used.
(§2) For culturing, a Renal Epithelial Growth Medium (REGM™) Bullet kit, also manufactured by the same Lonza company, was used, and the cells were cultured under conditions of 37° C. and 5% CO2. As a plasmid for luciferase expression, a plasmid in which the promoter site of a human KL (klotho) gene was disposed to regulate the expression of a firefly luciferase gene was used.
The plasmid was incorporated into cells using an X-treme GENE transfection reagent from Roche. The activity of luciferase expressed in cells was measured using a Dual-Luciferase reporter assay system manufactured by Promega. After the cultured cells were treated with each compound at an indicated concentration for 24 hours, the activity of luciferase was measured. It is indirectly shown that the expression of the klotho gene may be increased when the activity of luciferase is high. […]

[2] = tested on: promoter of the human klotho gene; test: Luciferase expression experiment, reporter gene pHKP-luc (promoter up to -2.1 kb upstream) in RPTECs; format: cell-based
Method: as §1, §2
The plasmid was incorporated into cells using an X-treme GENE transfection reagent from Roche. The activity of luciferase expressed in cells was measured using a Dual-Luciferase reporter assay system manufactured by Promega. After the cultured cells were treated with each compound at an indicated concentration for 24 hours, the activity of luciferase was measured. It is indirectly shown that the expression of the klotho gene may be increased when the activity of luciferase is high.
The results of confirming the expression of a reporter gene by treating RPTECs, which are epithelial cells of the proximal tubule of the human kidneys, with Examples 1 to 6 at concentrations of 0.5, 1 and 5 μM and Comparative Example 1 at a concentration of 5 μM and using a reporter gene (pHKP-luc) including a promoter included up to −2.1 kb upstream of the human klotho gene are illustrated in FIGS. 2 and 3.

klotho (KL) gene [3] = test: Quantitative evaluation of klotho (KL) gene expression level using real-time PCR in RPTEC cells; format: cell-based, human; conditions: RPTEC cells treated for 6 hours; real-time PCR (FIG. 4)
Method: For RNA extraction from RPTEC cells, which are epithelial cells of the proximal tubule of the human kidneys, treated with the compounds of Comparative Example 1 and Examples 1 and 2 for 6 hours, an RNeasy kit from Qiagen Inc. was used. The results of preparing cDNA from extracted RNA using a Superscript II kit from Thermo Fisher Scientific. Inc. and performing the quantitative evaluation using Taqman Gene Expression assays from Applied Biosystems as a klotho (KL) gene-specific kit are illustrated in FIG. 4.

klotho protein = test: Klotho protein expression level in cisplatin-treated HK-2 cells; format: cell-based, human; conditions: cisplatin (20 μM) disease model, KS1 3 μM, after 24 hours (FIG. 7B)
Method: As in the protocol in FIG. 7A, a disease model was made by treating HK-2 cells (human renal cells) with cisplatin (20 μM), and then treated with a KS1 compound (Example 10) (3 μM). After 24 hours, the expression degree of the klotho protein was confirmed by obtaining the cells.

[4] = tested on: unilateral ureter obstruction model; test: Unilateral ureter obstruction (UUO) model; format: in vivo; conditions: UUO mice, 20 mg/kg/day into the abdominal cavity
Method: In a unilateral ureter obstruction model, 5-week-old male […] mice were used. After the right ureter was tied with a thread to create a unilateral ureter obstruction model, the KS1 compound (20 mg/kg/day) was injected into the abdominal cavity daily starting 24 hours later. After that, samples were collected by sacrificing the mice on days 7 and 14 and tested (FIG. 8A).

[5] = tested on: spontaneous hypertensive rat (SHR); test: Effect of reducing hypertension in spontaneous hypertensive rat; format: in vivo; conditions: SHR rats
Method: A 6-week-old rat male WKY/lzm was used as a normal control, and a 6-week-old rat male SHR/lzm was used as an experimental group in which hypertension was induced. All animals were purchased from the Central Laboratory Animal, and experiments were conducted at the rearing facility in a re-entry area within the Experimental Animal Center of the Osong Medical Innovation Foundation. The […] were quarantined and acclimatized for 7 days after receipt, and the health of the animals was observed during this period.
Group separation was performed on the end day of instrument acclimatization (group separation day) among animals having no general symptoms. […]
• (1) A test material and a positive control material were dissolved in an excipient in a liquid amount of 20 mIJkg according to the corresponding concentration. • (2) After quarantine and acclimatization, the excipient, the test material, and the positive control material were administered after group separation based on the blood pressure and body weight of animals. • (3) All administration groups were administered orally 7 times/week for 8 weeks using a 3 mL syringe with a liquid amount of 20 mL/kg based on the body weight measured once a week. […]
On days 36 and 64 after administration of the drug, blood pressure was measured by placing the animals in a blood pressure measuring frame and allowing the tails to come out. […]

klotho (KL) gene [6] = test: Quantitative evaluation of klotho (KL) gene expression level using general PCR in RPTEC cells; format: cell-based, human; set-up: dose or concentration left out as unconfirmed; conditions: general PCR (FIG. 5)
Method: After RPTEC cells, which are epithelial cells of the proximal tubule of the human kidneys, were each treated with the compounds of Examples 7 to 10 at […] for 6 hours. RNA was extracted from the cells, and cDNA was prepared from the extracted RNA using a Superscript II kit from Thermo Fisher Scientific, Inc., and then general PCR was performed.
Information on the primers used in the experiment is as follows.
The DNA amplified by PCR was confirmed by staining with ethidium bromide after electrophoresis on an agarose gel, and the amounts of DNA in the band were quantitatively compared using the SPEedyQuant program, and are illustrated in FIG. 5.

[7] = tested on: human kidney-2 (HK2) cells; test: Toxicity test, EZ-Cytox kit; format: cell-based; conditions: 12.5 μM or 25 μM, 24 hours
Method: Cultured human kidney-2 (HK2) cells were treated with Comparative Example 1, Example 2 and Examples 9 to 10 at a concentration of 25 μM or 12.5 μM, and after 24 hours, cytotoxicity was measured using an EZ-Cytox kit.

[8] = tested on: Human renal proximal tubule epithelial cells (RPTECs); test: Inhibition of cellular senescence, senescence β-galactosidase staining; format: cell-based
Method: Human renal proximal tubule epithelial cells (RPTECs), which are renal tubular epithelial cells, were purchased from Lonza, and as a culture medium, a REGM kit supplied by the same company was also used. Cells were cultured in a 37° C. incubator under 5% CO2 conditions. When the cells reached 80% saturation, the cells were treated with trypsin, transferred to a new culture dish, and subcultured. A compound was attached to the medium such that the final concentration was 2.5 μM, and a constant concentration was maintained by adding the compound thereto during each passage. […] As for the cells inducing senescence, cells subcultured 17 times (#17) in total were used.
“Senescence β-galactosidase staining kit” from Cell Signaling Technology, Inc. was used to confirm the degree of senescence of cells. On the day of the experiment, a staining solution was added to the cells, and the stained cells were confirmed 8 hours later. The number of stained cells was confirmed and expressed as a ratio among the total number of cells observed under a 200-fold microscope, and the number of stained cells at three different locations per sample was counted and averaged. As the senescence of the cells progresses, the expression of the enzyme β-galactosidase increases, and therefore the stained cells may be determined as more senescent cells than the non-stained cells.

[9] = RPTECs, Examples at 0.5, 1 and 5 μM, Comparative Example 1 at 5 μM, pHKP-luc (FIG. 2)

O=C(Nc1ccccc1Cl)c1c[nH]c2ccccc12 [Comparative Example 1, N-(2-chlorophenyl)-1H-indole-3-carboxamide]
luciferase activity [1]: highest

O=C(Nc1nc2ccccc2o1)c1ccc([N+](=O)[O-])cc1Cl [Example 1, N-(benzo[d]oxazol-2-yl)-2-chloro-4-nitrobenzamide]
expression of the reporter gene [2, 9]: at a level similar to that of Comparative Example 1

Cc1ccc2oc(Nc3ccc(Cl)c(Cl)c3)nc2c1 [Example 2]
mRNA expression level of the klotho (KL) gene (klotho (KL) gene [3]): at a level similar to that of Comparative Example 1 | expression of the reporter gene ([2]; RPTEC cells, 5 μM, pHKP-luc (FIG. 3)): at a level similar to that of Comparative Example 1 | expression of the reporter gene [2, 9]: at a level similar to that of Comparative Example 1

Fc1ccc(Nc2nc3ccccc3o2)cc1F [Example 10, N-(3,4-difluorophenyl)benzo[d]oxazol-2-amine]
expression of the klotho protein (klotho protein): increased | renal hypertrophy (kidney size) ([4]; days 7 and 14 (FIG. 8B)): no difference in size | nuclear and cytoplasmic changes, H&E staining ([4]; one-week and two-week samples (FIG. 9)): large reduction in tissue destruction | klotho protein expression ([4]; one-week sample (FIG. 12)): increased | fibrosis progression, Sirius Red staining ([4]; versus UUO model not treated with KS1 (FIG. 10)): fibrosis occurred less | degree of apoptosis, TUNEL staining ([4]; versus UUO model not treated with KS1 (FIG. 11)): remarkably reduced | expression level of MMP-9 protein (inflammation marker) ([4]; week 1 and week 2 (FIG. 13)): remarkably reduced | blood pressure reduction effect on co-administration with losartan ([5]; KS1 co-administered with losartan, versus each drug administered independently (FIG. 14)): better blood pressure reduction effect | systolic pressure ([5]; oral 20 mg/kg/day for 8 weeks, measured days 36 and 64 (FIG. 14)): remarkably reduced | expression level of the klotho (KL) gene relative to Comparative Example 1 (klotho (KL) gene [6]): about 10 times | improvement of toxicity compared to Comparative Example 1 [7]: ≥ 20% | cytotoxicity ([7]; EZ-Cytox (FIG. 6)): least toxicity | cells stained (senescence β-galactosidase) ([8]; RPTECs subcultured 17 times, 2.5 μM in medium, DMSO about 90% (FIG. 15)): about 70% | decrease in degree of senescence compared to DMSO ([8]; RPTECs, 17 passages, 2.5 μM): about 20%

N.N.[Cl][Pt][Cl] [cisplatin, reference compound]
expression of the klotho protein (klotho protein): decreased
